According to US20220378854A1, “COMPOSITION FOR PREVENTING, TREATING, OR IMPROVING GASTROINTESTINAL DISEASES COMPRISING STRAIN OF GENUS CORYNEBACTERIUM AND CULTURE THEREOF” (CJ CheilJedang Corporation, priority 2019, published 2022):

What was measured:
WIRS rats [1] = assay: apoptosis on the gastric mucosa of WIRS rats (TUNEL, apoptotic index); assay type: in vivo, rat; settings: oral 8 hours before WIRS; WIRS 6 hours
Description: (§1) They were divided into a untreated group in which nothing was treated after oral administration of saline solution ([…], animal experimental group 1), WIRS Group in which WIRS was applied for 6 hours ([…], animal experimental group 2), and animal experimental groups in which feed containing Sample 1 (prepared in Example 8) of 0.15% by weight (animal experimental group 3) and feed containing Sample 3 (prepared in Example 8) of 0.21% by weight (animal experimental group 4) were orally treated by 30 mg/kg body, respectively, 8 hours before WIRS treatment. The content of L-Thr (L-threonine) in the feed of the animal experimental groups 3 and 4 was set to 0.15% by weight/diet equally.
Specifically, apoptosis was visualized using TdT FragEL DNA fragmentation detection kit (Oncogene Research Products, Cambridge, Mass.) and TUNEL (Terminal deoxynucleotidyl transferase-mediated nick end labeling) method. To measure AI (apoptotic index) by finding a region in which apoptosis occurs in a large quantity (apoptotic hot spot) in each experimental group, TUNEL-immunostained section (terminal deoxynucleotidyl transferase mediated dUTP nick-end labeling (TUNEL)-immunostained section) was enlarged 100 folds and scanned. Then, the number of TUNEL-positive cells was counted in 400 fields to record AI. […]

WIRS rats [2] = assay: apoptosis proteins in WIRS rats (western blot); assay type: in vivo, rat; settings: oral 8 hours before WIRS; WIRS 6 hours
Description: as §1
In addition, in each of the animal experimental groups 1-4, the protein level of p-IκBα, p-ERK, and p-JNK was measured and shown in FIG. 8c and FIG. 8d. Specifically, to perform western blot for measuring the protein level, the collected gastric mucosa was homogenized in ice-cold 20 mM Tris-HCl buffer (pH 7.5) containing 2 mM EDTA (ethylenediaminetetraacetic acid), 0.5 mM EGTA (ethylene glycol tetraacetic acid), 300 mM sucrose, and 2 mM PMSF (phenylmethylsulfonyl fluoride) with a tissue homogenator. After electrophoresis of protein of 30 μg in 8% SDS-PAGE (sodium dodecyl sulfate-polyacrylamide gel electrophoresis) gel, it was transferred to PVDF (polyvinylidene fluoride) membrane using a semidry transfer system (Hoefer, Holliston, Mass., USA). Non-specific binding was blocked by incubation with 5% non-fat dry milk. The membrane was thermostatically incubated with a 500-fold diluted solution of a primary antibody at 4° C. overnight, and then incubated with an HRP (horseradish peroxidase) binding-secondary antibody diluted by 1:1000. The immune complex was detected using ECL detection kit (Amersham Biosciences Korea, Seoul, Korea) and X-ray film was automatically irradiated. Antibodies used for western blot were as follows. β-actin, iNOS (nitric oxide synthase), COX-2 (cyclooxygenase), P-JNK (phosphor-JNK), P-ERK (phosphor-ERK), Bcl-2 (B-cell lymphoma 2), Bax (B-cell lymphoma-2-associated X-protein), and cyclin D1 antibodies were purchased from Santa Cruz Biotechnology (Santa Cruz, Calif.). p-IκBα (phosphorylated inhibitor of kappa B alpha), p-STAT3 (phosphorylated signal transducer and activator of transcription 3), PARP (poly(ADP-ribose) polymerase), CDK4 (cyclin-dependent kinase 4), and CDK2 (cyclin dependent kinase 2) were purchased from Cell Signaling Technology (Beverly, Mass.). HO-1 (A heme oxygenase-1) antibody was purchased from Enzo life Sciences (Farmingdale, N.Y.). […]

WIRS rats [3] = assay: WIRS rat model, stomach observed by naked eyes (gastrorrhagia); assay type: in vivo; settings: oral, 8 hours before WIRS; same threonine 0.15% by weight/diet; WIRS 6 hours
Description: (§2) 110 SD rats in total were purchased from Charles River (Osaka, Japan) and stored in an animal facility. The experimental animals were handled in the authorized animal facility according to AAALAC International Animal Care Policies. The animals were fasted 24 hours prior to be exposed to WIRS, and water was freely available. 10 rats of each group were placed in a cage for WIRS and immersed in water for 6 hours.
Sample 1 to Sample 5 prepared in Example 8 were orally administered to rats 8 hours before WIRS treatment, so that the same amount of threonine was administered (0.15% by weight/diet), and after applying WIRS for 6 hours, the animals were sacrificed and the stomach was extracted and incised and contents were removed, and a picture of the inner surface of the stomach was taken and this was shown in FIG. 11.

WIRS rats [4] = assay: mRNA expression of inflammation mediators and PDGF in WIRS rats; assay type: in vivo, rat; settings: oral 8 hours before WIRS; L-Thr 0.15% by weight/diet; WIRS 6 hours
Description: as §1
Since SRMD was physiologically related to ischemic-reperfusion damage, in the animal experimental groups 1 to 4, mRNA expression of angiogenesis growth factors including PDGF (platelet-derived growth factor) and mRNA expression of inflammation mediators, iNOS, TNF-α, IFN-γ, and PDGF were measured, and the result was shown in FIG. 8a and FIG. 8b.
Specifically, the total RNA was extracted using RNeasy Mini kit (Qiagen Korea, Seoul, Korea). Amplification was analyzed using 10× reaction buffer (Promega Korea, Seoul, Korea), 1.5 mM/L MgCl2, […] deoxynucleotide triphosphate (dNTP), each primer […], and Taq DNA polymerase (Promega) 2.5 unit, using Perkin-Elmer GeneAmp PCR System 2400. Each cycle was composed of denaturation at 95° C. for 1 minute, annealing at 55° C. for […], and amplification at 72° C. for 45 seconds.

WIRS rats [5] = assay: SRMD improving efficacy in WIRS rats (gross lesion index, pathologic scores); assay type: in vivo, rat; settings: oral 8 hours before WIRS; L-Thr 0.15% by weight/diet; WIRS 6 hours
Description: as §2, §1
All experimental animals (rat) were sacrificed with a high dose of anesthetic (thiopental sodium, 50 mg/kg) after 6 hours of WIRS. The animal experimental groups 1-4 disclosed in the following Examples 10 to 12 mean the animal experimental groups 1-4 of the Table 5, and in FIG. 7a to FIG. 10, Groups 1-4 mean the animal experimental groups 1-4 of Table 5.
The stomach of the rat sacrificed in Example 9 was incised and opened along the larger curvature, and then washed with cold PBS solution. After determining the number and size of erosions or ulcers by enlarged photographs, the half was anatomized for anatomical observation. The incised stomach was spread over plastic sheet and fixed in 10% buffer formalin for 4 hours and used for production of a paraffin tissue slide, and the other half was stored in a liquid nitrogen tank for molecular biological observation. In addition, the mucosal homogenate was stored by mixing the same animal experimental groups.
The stomach sample was observed using […] naked eyes (FIG. 7a), and in the control group and each experimental group (animal experimental groups 1-4), gross lesion index, inflammation; pathologic score, ulcer/erosion; pathologic score, regeneration; pathologic score were calculated and shown in FIG. 7b.

WIRS rats [6] = assay: CDK4 and Cyclin D1 protein in WIRS rats; assay type: in vivo, rat; settings: oral 8 hours before WIRS; WIRS 6 hours
Description: as §1
(§3) In addition, in each of the animal experimental groups 1-4, the protein level of p-IκBα, p-ERK, and p-JNK was measured and shown in FIG. 8c and FIG. 8d. Specifically, to perform western blot for measuring the protein level, the collected gastric mucosa was homogenized in ice-cold 20 mM Tris-HCl buffer (pH 7.5) containing 2 mM EDTA (ethylenediaminetetraacetic acid), 0.5 mM EGTA (ethylene glycol tetraacetic acid), 300 mM sucrose, and 2 mM PMSF (phenylmethylsulfonyl fluoride) with a tissue homogenator. […] The immune complex was detected using ECL detection kit (Amersham Biosciences Korea, Seoul, Korea) and X-ray film was automatically irradiated. […]

WIRS rats [7] = assay: p-IκBα, p-ERK, p-JNK protein level in gastric mucosa of WIRS rats (western blot); assay type: in vivo, rat; settings: oral 8 hours before WIRS, WIRS 6 hours
Description: as §1, §3

WIRS rats [8] = assay: mucin content in stomach tissue of WIRS rats by PAS staining; assay type: in vivo, rat; settings: oral 8 hours before WIRS, WIRS 6 hours
Description: as §1
In the stomach tissue of the animal experimental groups 1 to 4, the mucin content was confirmed by PAS staining, and the result was shown in FIG. 10.

SMILES: C[C@@H](O)[C@H](N)C(=O)O [Sample 1, threonine]
- apoptosis level on the gastric mucosa (TUNEL) (WIRS rats [1]): significantly reduced
- Bax expression (WIRS rats [2]): significantly reduced
- PARP division (WIRS rats [2]): significantly reduced
- cleaved caspase-3 expression (WIRS rats [2]): significantly reduced
- cleaved caspase-8 expression (WIRS rats [2]): significantly reduced
- degree of gastrorrhagia reduced (therapeutic effect of gastric ulcer), rank order (WIRS rats [3]): Sample 1<Sample 5<Sample 4<Sample 3 or Sample 2
- IFN-γ mRNA expression (WIRS rats [4]): significantly reduced
- PDGF mRNA expression (WIRS rats [4]): significantly reduced
- TNF-α mRNA expression (WIRS rats [4]): significantly reduced
- iNOS mRNA expression (WIRS rats [4]): significantly reduced
- SRMD (erosions, hemorrhage, ulcers), stomach observation (WIRS rats [5]): significantly improved
- gross lesion index (WIRS rats [5]): significantly (p<0.05) improved
- inflammation; pathologic score (WIRS rats [5]): significantly (p<0.05) improved
- regeneration; pathologic score (WIRS rats [5]): significantly (p<0.05) improved
- ulcer/erosion; pathologic score (WIRS rats [5]): significantly (p<0.05) improved
- expression of CDK4 (WIRS rats [6]): significantly reduced
- expression of Cyclin D1 (WIRS rats [6]): significantly reduced
- p-ERK activation (signaling) (WIRS rats [7]): partially inactivated
- p-JNK activation (signaling) (WIRS rats [7]): partially inactivated
- gastric mucin / mucus expression (PAS staining) (WIRS rats [8]): significantly preserved
